Experimental data: ChEMBL document CHEMBL1208697 (Bioorg Med Chem Lett, 2010)

Key:
Rattus norvegicus [1] = experiment: Antiinflammatory activity in rat assessed as inhibition of carrageenan-induced paw edema after 3 hrs; format: functional
Rattus norvegicus [2] = experiment: Antiinflammatory activity in rat assessed as inhibition of carrageenan-induced paw edema at 100 mg/kg, po after 3 hrs; format: functional
[3] = target: T1, Prostaglandin G/H synthase 1 (Ovis aries, UniProt P05979)
T1 sequence (P05979 whole entry): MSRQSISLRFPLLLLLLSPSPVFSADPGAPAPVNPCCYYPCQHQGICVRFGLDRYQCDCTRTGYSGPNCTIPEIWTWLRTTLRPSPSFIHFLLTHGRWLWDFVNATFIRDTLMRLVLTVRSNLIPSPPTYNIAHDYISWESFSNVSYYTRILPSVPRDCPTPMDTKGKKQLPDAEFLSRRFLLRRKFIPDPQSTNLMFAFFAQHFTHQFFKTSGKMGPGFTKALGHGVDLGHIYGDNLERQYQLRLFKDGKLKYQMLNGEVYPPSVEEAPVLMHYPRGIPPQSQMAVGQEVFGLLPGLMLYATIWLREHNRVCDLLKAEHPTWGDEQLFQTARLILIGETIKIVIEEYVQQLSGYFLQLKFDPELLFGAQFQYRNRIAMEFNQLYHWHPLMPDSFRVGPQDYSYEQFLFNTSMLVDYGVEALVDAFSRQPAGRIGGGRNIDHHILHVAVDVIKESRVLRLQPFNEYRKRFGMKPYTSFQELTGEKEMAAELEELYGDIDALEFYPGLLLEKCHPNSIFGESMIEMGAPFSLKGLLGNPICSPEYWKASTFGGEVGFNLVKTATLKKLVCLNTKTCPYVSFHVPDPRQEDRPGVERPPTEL
Description: Inhibition of sheep COX1 by enzyme immunoassay

Structure (SMILES) | ED50 (Rattus norvegicus [1]) [µmol/kg] | inhibition in vivo at 100 mg/kg (Rattus norvegicus [2]) [%] | IC50 [3] [µM]
NS(=O)(=O)c1ccc(-n2nc(C(F)(F)F)cc2-c2ccc(/[N+]([O-])=N\O)cc2)cc1 | 168 | 65.7 | –
CO/N=[N+](/[O-])c1ccc(-c2cc(C(F)(F)F)nn2-c2ccc(S(C)(=O)=O)cc2)cc1 | – | 9.8 | 10.5
CO/N=[N+](/[O-])c1ccc(-c2cc(C(F)(F)F)nn2-c2ccc(S(N)(=O)=O)cc2)cc1 | 241 | 47.7 | 12.1
CC(=O)OC(C)O/N=[N+](/[O-])c1ccc(-c2cc(C(F)(F)F)nn2-c2ccc(S(C)(=O)=O)cc2)cc1 (stereo unspecified) | – | 5.1 | 17
CC(=O)OC(C)O/N=[N+](/[O-])c1ccc(-c2cc(C(F)(F)F)nn2-c2ccc(S(N)(=O)=O)cc2)cc1 (stereo unspecified) | – | 18.6 | 11.3
